Assay results taken from patent US20230265098A1, “ALKYNE QUINAZOLINE DERIVATIVES AS INHIBITORS OF ERBB2” (EnLiven Therapeutics, Inc., priority 2020, published 2023).

Experiments:
MDA-MB-175VII cells = test: Cell viability assay (CellTiter Glo); format: cell-based; conditions: Homo sapiens, 72 hours, 2000 cells per well, 384-well, RPMI + 10% FBS
Protocol: (§1) Cells were treated with compounds, and cell viability was measured as a metric of kinase inhibition.
(§2) The Ba/F3 cell line is IL-3-dependent mouse cell line derived from the C3H mouse strain. Ba/F3 cell lines were engineered to express human ERBB2 or EGFR kinases, rendering the cells IL-3 independent. The lines were generated via retroviral transduction utilizing a Moloney murine leukemia virus (MMLV) promoter, and constructs are stably integrated into the cell genome.
(§3) Similarly, Ba/F3 cell lines engineered to express EGFR, ERBB2, or ERBB2 mutants were grown, harvested, counted and seeded at 3000 cells per well in 96-well plates for the data sets shown in Tables B3-B4, and seeded at 300 cells per well in 384-well plates for the data set shown in Table B5. A subset of wells contained media only (low control, “LC”).
(§4) Table B2 provides the growth media and number of cells seeded per well for the each cell line.
(§5) Compounds were dissolved in DMSO and serially diluted. Serially-diluted compound or a DMSO only control (high control, “HC”) was added to the plated cells in each well. […] The final proportion of DMSO never exceeded 0.1%.
(§6) Plates were placed in a 37° C., 5% CO2 incubator for 72 hours. Plates were then removed from the incubator and equilibrated for 15 minutes at room temperature. 40 IA of CellTiter Glo reagent (Promega) was added to measure the relative level of metabolically active cells by quantifying intracellular ATP concentrations. Plates were incubated for 30 minutes at room temperature, and luminescence was measured. Percent viability was normalized to a vehicle control only using the following formula: % viability=100×(LumSample−LumLC) (LumHC−LumLC). Graphical curves were fitted using a nonlinear regression model with a sigmoidal dose response.

A431 cells = test: Cell viability assay (CellTiter Glo); format: cell-based; conditions: Homo sapiens, A-431; 72 hours; 1500 cells per well, 384-well; DMEM + 10% FBS
Protocol: as §1, §2, §3, §4, §5, §6

BT-474 cells = test: Cell viability assay (CellTiter Glo); format: cell-based; conditions: Homo sapiens, 72 hours, 2000 cells per well, 384-well, DMEM + 10% FBS
Protocol: as §1, §2, §3, §4, §5, §6

[1] = target: T1, phosphorylated ERBB2 (pERBB2) (Homo sapiens, UniProt P04626); test: Detection of phosphorylated ERBB2 (pERBB2) by ELISA in BT-474 cells; format: cell-based; conditions: four hours incubation with compound, OD 450 nm
T1 construct: endogenous in cells; host or cells: BT-474
Protocol: BT-474 cells were seeded into a 96-well at 2.0*10^4 cells/100 μl/well.
Compounds were dissolved and serially diluted in DMSO. The compounds were then were added, mixed, and incubated for four hours at 37° C., 5% CO2. Compounds were added using four-fold dilutions at final concentrations ranging from 10 μM to 0.01 nM.
Following the four hour incubation with compounds, cell lysates were prepared. Plates were centrifuged for 5 min at 3000 RPM, and supernatant was removed from each well. Cells were washed 3 times by resuspension in 150 μl PBS, followed by centrifugation and removal of the supernatant, as above. […] Cells were incubated with lysis buffer for 1 hour at 4° C., and then stored at −80° C.
Enzyme-linked immunosorbent assays (ELISA) were performed to measure phosphorylated ERBB2 levels. […] The next day, plates were washed with PBS+0.05% Tween20 (PBST). 150 μl of 5% BSA blocking solution was added for 1 hour at room temperature, with shaking. Plates were washed with PBST. Cell lysates were thawed and 100 μl of lysate was added to the ELISA plate. The plates were incubated for 2 hours at room temperature, with shaking. […] Plates were incubated for 1 hour at room temperature, with shaking. Plates were then washed with PBST, and 100 μl TMB substrate solution (R&D Systems, cat #DY999) was added. Plate were incubated in the dark for 20 minutes at room temperature. 50 μl of Stop solution (R&D Systems, cat #DY994) (50 μl) was added to each well and mixed.
Optical density at 450 nm was read on an EnSpire plate reader (Perkin Elmer). The remaining kinase activity by calculated using the following formula: % Relative activity=100×(A450sample−A450LC)/(A450HC−A450LC). The low and high control values (“LC” and “HC”) were generated from lysate from wells without cells or with cells treated with 0.1% DMSO, respectively.

Ba/F3 ERBB2-L755S = target: T2, Ba/F3 ERBB2-L755S (Homo sapiens, UniProt P04626, L755S, cells depend on it); test: Cell viability assay (CellTiter Glo); format: cell-based, mouse; conditions: 72 hours; 3000 cells per well, 96-well plates; read-out: Cell viability IC50, nM, Ba/F3 ERBB2-L755S
T2 construct: Ba/F3 cell lines were engineered to express human ERBB2 or EGFR kinases, rendering the cells IL-3 independent
Protocol: as §1, §2, §3, §4, §5, §6

Ba/F3 ERBB2 wt = target: T3, Ba/F3 ERBB2 wt (Homo sapiens, UniProt P04626); test: Cell viability assay (CellTiter Glo); format: cell-based, mouse; conditions: 72 hours; 3000 cells per well, 96-well plates; read-out: Cell viability IC50, nM, Ba/F3 ERBB2 wt
T3 construct: Ba/F3 cell lines were engineered to express human ERBB2 or EGFR kinases, rendering the cells IL-3 independent
Protocol: as §1, §2, §3, §4, §5, §6

Ba/F3 ERBB2-V777L = target: T4, Ba/F3 ERBB2-V777L (Homo sapiens, UniProt P04626, V777L, cells depend on it); test: Cell viability assay (CellTiter Glo); format: cell-based, mouse; conditions: 72 hours; 3000 cells per well, 96-well plates; read-out: Cell viability IC50, nM, Ba/F3 ERBB2-V777L
T4 construct: Ba/F3 cell lines were engineered to express human ERBB2 or EGFR kinases, rendering the cells IL-3 independent
T4 sequence (P04626 whole entry V777L): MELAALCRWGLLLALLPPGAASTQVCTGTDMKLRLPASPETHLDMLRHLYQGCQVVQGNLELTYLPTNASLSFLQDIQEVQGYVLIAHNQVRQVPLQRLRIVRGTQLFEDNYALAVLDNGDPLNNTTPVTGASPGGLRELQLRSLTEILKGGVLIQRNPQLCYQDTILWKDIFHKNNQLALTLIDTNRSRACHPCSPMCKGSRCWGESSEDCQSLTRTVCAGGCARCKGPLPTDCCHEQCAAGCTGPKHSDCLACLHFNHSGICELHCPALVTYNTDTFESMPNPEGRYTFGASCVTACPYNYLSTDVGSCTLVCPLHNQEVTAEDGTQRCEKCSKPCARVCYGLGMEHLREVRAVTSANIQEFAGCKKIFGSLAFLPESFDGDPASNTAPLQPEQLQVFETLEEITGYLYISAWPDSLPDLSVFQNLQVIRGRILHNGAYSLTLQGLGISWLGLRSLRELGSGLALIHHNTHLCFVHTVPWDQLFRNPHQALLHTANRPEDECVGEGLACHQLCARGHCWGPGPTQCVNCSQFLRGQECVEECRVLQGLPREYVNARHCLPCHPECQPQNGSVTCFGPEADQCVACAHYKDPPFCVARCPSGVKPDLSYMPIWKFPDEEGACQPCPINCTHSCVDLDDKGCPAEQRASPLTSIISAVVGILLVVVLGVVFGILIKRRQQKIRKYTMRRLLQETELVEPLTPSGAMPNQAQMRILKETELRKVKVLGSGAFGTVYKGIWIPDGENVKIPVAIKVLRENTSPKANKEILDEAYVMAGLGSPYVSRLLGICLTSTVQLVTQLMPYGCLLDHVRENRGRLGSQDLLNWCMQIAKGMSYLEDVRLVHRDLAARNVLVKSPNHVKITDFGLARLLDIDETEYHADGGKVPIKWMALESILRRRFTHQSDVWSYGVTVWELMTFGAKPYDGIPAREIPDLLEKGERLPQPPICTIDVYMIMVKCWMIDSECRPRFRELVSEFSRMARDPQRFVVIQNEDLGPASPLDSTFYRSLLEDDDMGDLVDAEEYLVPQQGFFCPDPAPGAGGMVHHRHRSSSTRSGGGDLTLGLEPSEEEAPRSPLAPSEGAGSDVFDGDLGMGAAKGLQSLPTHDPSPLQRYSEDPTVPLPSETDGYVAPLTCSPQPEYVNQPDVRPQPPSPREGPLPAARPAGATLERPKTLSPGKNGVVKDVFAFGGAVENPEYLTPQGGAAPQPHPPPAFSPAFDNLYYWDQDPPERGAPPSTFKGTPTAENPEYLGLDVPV
Protocol: as §1, §2, §3, §4, §5, §6

[2] = target: T5, Ba/F3 ERBB2 A775_G776insYVMA (Homo sapiens, UniProt P04626, DUP772-775, cells depend on it); test: Cell viability assay (CellTiter Glo); format: cell-based, mouse; conditions: 72 hours; 3000 cells per well, 96-well plates (Tables B3-B4); read-out: Cell viability IC50, nM, Ba/F3 ERBB2 A775_G776insYVMA
T5 construct: Ba/F3 cell lines were engineered to express human ERBB2 or EGFR kinases, rendering the cells IL-3 independent
T5 sequence (P04626 with tags, fused parts or gaps DUP772-775): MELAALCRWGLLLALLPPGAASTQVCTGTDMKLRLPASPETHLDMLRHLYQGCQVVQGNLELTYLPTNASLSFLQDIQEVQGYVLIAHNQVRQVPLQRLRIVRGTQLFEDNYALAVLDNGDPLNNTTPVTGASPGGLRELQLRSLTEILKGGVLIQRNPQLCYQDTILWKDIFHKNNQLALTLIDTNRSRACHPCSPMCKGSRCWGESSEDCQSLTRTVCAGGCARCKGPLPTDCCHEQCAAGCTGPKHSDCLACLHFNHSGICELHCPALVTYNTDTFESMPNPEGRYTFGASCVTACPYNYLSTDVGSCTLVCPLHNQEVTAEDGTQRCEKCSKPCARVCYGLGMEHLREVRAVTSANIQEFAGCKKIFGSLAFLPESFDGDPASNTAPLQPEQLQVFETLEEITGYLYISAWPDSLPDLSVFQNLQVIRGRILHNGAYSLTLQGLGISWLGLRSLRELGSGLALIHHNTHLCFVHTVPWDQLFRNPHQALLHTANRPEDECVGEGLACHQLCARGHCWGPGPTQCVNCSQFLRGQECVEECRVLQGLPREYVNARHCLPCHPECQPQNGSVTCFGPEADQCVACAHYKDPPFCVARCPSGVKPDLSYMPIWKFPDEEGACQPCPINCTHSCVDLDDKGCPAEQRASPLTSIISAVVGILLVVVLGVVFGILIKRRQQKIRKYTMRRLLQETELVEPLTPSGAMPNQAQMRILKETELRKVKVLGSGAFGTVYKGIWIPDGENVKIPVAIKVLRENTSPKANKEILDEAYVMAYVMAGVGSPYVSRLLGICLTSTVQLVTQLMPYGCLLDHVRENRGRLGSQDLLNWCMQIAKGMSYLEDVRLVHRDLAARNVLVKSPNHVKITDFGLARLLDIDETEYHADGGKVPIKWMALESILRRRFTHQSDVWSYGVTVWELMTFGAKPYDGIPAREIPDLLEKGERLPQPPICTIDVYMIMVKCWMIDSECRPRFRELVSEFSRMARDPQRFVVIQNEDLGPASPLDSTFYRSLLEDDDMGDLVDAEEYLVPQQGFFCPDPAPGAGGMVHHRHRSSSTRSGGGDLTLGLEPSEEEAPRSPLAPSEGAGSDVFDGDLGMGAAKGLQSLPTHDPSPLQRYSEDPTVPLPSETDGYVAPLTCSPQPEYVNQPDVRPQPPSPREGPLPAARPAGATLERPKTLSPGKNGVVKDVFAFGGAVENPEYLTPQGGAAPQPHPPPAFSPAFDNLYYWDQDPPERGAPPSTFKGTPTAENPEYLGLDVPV
Protocol: as §1, §2, §3, §4, §5, §6

Ba/F3 ERBB2-G776VC = target: T6, Ba/F3 ERBB2-G776VC (Homo sapiens, UniProt P04626, DELINS776-776VC, cells depend on it); test: Cell viability assay (CellTiter Glo); format: cell-based, mouse; conditions: 72 hours; 3000 cells per well, 96-well plates; read-out: Cell viability IC50, nM, Ba/F3 ERBB2-G776VC
T6 construct: Ba/F3 cell lines were engineered to express human ERBB2 or EGFR kinases, rendering the cells IL-3 independent
Protocol: as §1, §2, §3, §4, §5, §6

[3] = target: T7, Ba/F3 ERBB2-V777_G778insGC (Homo sapiens, UniProt P04626, INS778CG, cells depend on it); test: Cell viability assay (CellTiter Glo); format: cell-based, mouse; conditions: 72 hours; 3000 cells per well, 96-well plates; read-out: Cell viability IC50, nM, Ba/F3 ERBB2-V777_G778insGC
T7 construct: Ba/F3 cell lines were engineered to express human ERBB2 or EGFR kinases, rendering the cells IL-3 independent
Protocol: as §1, §2, §3, §4, §5, §6

Ba/F3 ERBB2-T798M = target: T8, Ba/F3 ERBB2-T798M (Homo sapiens, UniProt P04626, T798M, cells depend on it); test: Cell viability assay (CellTiter Glo); format: cell-based, mouse; conditions: 72 hours; 3000 cells per well, 96-well plates; read-out: Cell viability IC50, nM, Ba/F3 ERBB2-T798M
T8 construct: Ba/F3 cell lines were engineered to express human ERBB2 or EGFR kinases, rendering the cells IL-3 independent
Protocol: as §1, §2, §3, §4, §5, §6

Ba/F3 ERBB2-L869R = target: T9, Ba/F3 ERBB2-L869R (Homo sapiens, UniProt P04626, L869R, cells depend on it); test: Cell viability assay (CellTiter Glo); format: cell-based, mouse; conditions: 72 hours; 3000 cells per well, 96-well plates; read-out: Cell viability IC50, nM, Ba/F3 ERBB2-L869R
T9 construct: Ba/F3 cell lines were engineered to express human ERBB2 or EGFR kinases, rendering the cells IL-3 independent
T9 sequence (P04626 whole entry L869R): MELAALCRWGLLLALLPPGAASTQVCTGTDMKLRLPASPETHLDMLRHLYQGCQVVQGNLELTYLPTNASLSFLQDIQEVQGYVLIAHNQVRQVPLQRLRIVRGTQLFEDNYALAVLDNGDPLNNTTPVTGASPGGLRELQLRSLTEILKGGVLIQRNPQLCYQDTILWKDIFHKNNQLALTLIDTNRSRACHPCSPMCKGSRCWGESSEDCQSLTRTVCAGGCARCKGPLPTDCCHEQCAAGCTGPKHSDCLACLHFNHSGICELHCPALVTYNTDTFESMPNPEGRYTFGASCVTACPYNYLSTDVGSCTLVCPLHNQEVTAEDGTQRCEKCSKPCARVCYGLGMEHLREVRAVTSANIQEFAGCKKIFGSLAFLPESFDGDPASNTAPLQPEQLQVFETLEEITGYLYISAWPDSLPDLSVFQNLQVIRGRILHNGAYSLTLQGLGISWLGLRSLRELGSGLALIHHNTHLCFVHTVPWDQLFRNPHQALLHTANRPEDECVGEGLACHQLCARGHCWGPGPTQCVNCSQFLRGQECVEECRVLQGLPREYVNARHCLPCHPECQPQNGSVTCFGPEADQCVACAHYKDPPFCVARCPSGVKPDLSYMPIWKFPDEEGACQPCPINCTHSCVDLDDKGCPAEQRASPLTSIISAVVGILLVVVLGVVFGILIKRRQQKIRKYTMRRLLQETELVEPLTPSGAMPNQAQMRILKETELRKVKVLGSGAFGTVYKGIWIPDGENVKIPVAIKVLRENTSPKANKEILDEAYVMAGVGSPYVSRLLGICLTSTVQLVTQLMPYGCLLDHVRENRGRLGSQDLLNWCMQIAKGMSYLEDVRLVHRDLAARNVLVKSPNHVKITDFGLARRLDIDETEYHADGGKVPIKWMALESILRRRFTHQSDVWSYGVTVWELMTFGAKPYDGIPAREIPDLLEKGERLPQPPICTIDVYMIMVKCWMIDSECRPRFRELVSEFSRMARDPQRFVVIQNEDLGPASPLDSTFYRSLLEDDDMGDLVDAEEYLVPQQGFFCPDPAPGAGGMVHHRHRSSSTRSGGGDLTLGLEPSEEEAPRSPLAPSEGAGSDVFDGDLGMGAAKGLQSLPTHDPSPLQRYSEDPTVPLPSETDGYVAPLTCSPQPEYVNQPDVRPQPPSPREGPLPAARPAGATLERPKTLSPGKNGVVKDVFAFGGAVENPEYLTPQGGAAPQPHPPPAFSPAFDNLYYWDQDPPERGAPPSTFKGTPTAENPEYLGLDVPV
Protocol: as §1, §2, §3, §4, §5, §6

[4] = target: T10, Ba/F3 ERBB2-P780_Y781insGSP (Homo sapiens, UniProt P04626, DUP778-780, cells depend on it); test: Cell viability assay (CellTiter Glo); format: cell-based, mouse; conditions: 72 hours; 3000 cells per well, 96-well plates; read-out: Cell viability IC50, nM, Ba/F3 ERBB2-P780_Y781insGSP
T10 construct: Ba/F3 cell lines were engineered to express human ERBB2 or EGFR kinases, rendering the cells IL-3 independent
T10 sequence (P04626 with tags, fused parts or gaps DUP778-780): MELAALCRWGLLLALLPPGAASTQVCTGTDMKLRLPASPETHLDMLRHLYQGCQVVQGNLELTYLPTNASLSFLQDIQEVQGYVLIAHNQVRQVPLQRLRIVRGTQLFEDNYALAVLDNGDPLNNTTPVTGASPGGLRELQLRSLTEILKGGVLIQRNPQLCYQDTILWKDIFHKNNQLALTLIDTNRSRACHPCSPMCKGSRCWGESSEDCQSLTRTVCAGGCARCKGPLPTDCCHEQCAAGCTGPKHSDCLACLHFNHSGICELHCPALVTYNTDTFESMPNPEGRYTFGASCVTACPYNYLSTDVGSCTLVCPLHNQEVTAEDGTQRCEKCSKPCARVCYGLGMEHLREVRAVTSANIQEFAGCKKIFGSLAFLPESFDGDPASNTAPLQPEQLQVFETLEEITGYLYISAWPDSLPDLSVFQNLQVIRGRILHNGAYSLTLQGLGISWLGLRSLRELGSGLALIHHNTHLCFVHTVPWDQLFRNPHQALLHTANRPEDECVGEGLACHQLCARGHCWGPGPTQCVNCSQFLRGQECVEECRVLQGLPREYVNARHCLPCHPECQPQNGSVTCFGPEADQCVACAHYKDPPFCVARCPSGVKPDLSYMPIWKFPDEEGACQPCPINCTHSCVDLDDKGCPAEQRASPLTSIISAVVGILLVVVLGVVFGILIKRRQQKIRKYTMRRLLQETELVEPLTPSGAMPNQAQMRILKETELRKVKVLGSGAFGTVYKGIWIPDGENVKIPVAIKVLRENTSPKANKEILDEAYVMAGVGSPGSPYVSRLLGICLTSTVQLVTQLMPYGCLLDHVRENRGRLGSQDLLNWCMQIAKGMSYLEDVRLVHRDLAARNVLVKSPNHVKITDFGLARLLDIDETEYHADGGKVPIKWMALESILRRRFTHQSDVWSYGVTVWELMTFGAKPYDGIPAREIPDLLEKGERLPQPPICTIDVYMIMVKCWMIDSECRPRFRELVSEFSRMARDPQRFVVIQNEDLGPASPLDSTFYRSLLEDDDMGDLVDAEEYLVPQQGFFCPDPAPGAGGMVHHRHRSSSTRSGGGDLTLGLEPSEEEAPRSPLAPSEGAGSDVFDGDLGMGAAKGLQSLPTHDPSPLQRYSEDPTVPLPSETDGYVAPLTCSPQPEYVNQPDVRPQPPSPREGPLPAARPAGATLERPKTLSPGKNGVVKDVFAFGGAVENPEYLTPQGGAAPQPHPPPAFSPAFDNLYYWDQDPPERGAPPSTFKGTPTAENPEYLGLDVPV
Protocol: as §1, §2, §3, §4, §5
as §6, with “Percent viability was normalized to a vehicle control only using the following formula: % viability=100×(LumSample−LumLC) (LumHC−LumLC).” left out

[5] = target: T11, phosphorylated EGFR (pEGFR) (Homo sapiens, UniProt P00533); test: Detection of phosphorylated EGFR (pEGFR) in EGF-stimulated A431 cells (AlphaLISA); format: cell-based; conditions: A431 cells (10% FBS), 4 hours with compound, then EGF 30 ng/mL for 10 minutes
T11 construct: endogenous in cells; host or cells: A431
Protocol: Enzyme-linked immunosorbent assays (ELISA) were performed to measure phosphorylated EGFR levels using A431 cells (10% FBS). A431 (1.0*10^4 cells/40 μl/well) cells were seeded in 384 well. Compounds were dissolved in DMSO, serially diluted in DMSO and then were added, mixed, and incubated for 4 hours at 37° C., 5% CO2. Following the 4-hours incubation, cells were stimulated for 10 minutes with EGF (Invitrogen, cat #PHG0311) at a final concentration of 30 ng/mL in the incubator. The media was aspirated and cells were lysed in 10 μL lysis buffer with protease and phosphatase inhibitors (PerkinElmer, cat #ALSU-PEGFR-A50K). The plates were placed on a shaker for 5 minutes and then incubated for 30 min at 4° C. for complete lysis. The lysate was transferred to an Optiplate (Perkin Elmer, cat #6007290).
Acceptor mix (PerkinElmer, cat #ALSU-PEGFR-A50K) was prepared just before use and 5 μL was dispensed to all the wells, followed by a 1.5-2 h incubation at room temperature in dark. The donor mix (PerkinElmer, cat #ALSU-PEGFR-A50K) was prepared under low light conditions prior to use and […] of donor mix was added to all the wells under subdued lighting or green filters. The plates were placed on a shaker for 5 min, sealed, and incubated overnight at room temperature in dark. Plates were read on the Envision (PerkinElmer) using standard AlphaLISA settings.
The percentage of inhibition on EGFR phosphorylation was calculated following equation: % Inhibition=100×(LumHC−LumSample)/(LumHC−LumLC). The low and high controls (LC/HC) are generated from lysate from wells with cells treated with DMSO or […] Staurosporine (BioAustralis, cat #BIA-S1086), […]. IC50 values were calculated by fitting the Curve using XLfit (v5.3.1.3), equation 201: Y=Bottom+(Top−Bottom)/(1+10^((LogIC50−X)*HillSlope)).

With CC#CC(=O)N(C)c1ccc2ncnc(Nc3ccc(Oc4ccn5ncnc5c4)cc3)c2c1 [Compound 8, N-methyl-N-[4-[(4-[[1,2,4]triazolo[1,5-a]pyridin-7-yloxy]phenyl)amino]quinazolin-6-yl]but-2-ynamide] as the compound, how does the IC50 (MDA-MB-175VII cells) read?
The IC50 was 562 nM.

And the IC50 (A431 cells)?
The IC50 was greater than 10000 nM.

And the IC50 (BT-474 cells)?
Its IC50 is 16.7 nM.

What about the IC50 [1] of the same compound?
The IC50 was 72.9 nM.

What about the GI50 (Ba/F3 ERBB2-L755S) of the same compound?
Its GI50 is 159 nM.

And the GI50 (Ba/F3 ERBB2 wt)?
The GI50 was 31 nM.

And the GI50 (Ba/F3 ERBB2-V777L)?
The GI50 was 11 nM.

What about the GI50 [2] of the same compound?
Its GI50 is 276 nM.

And the GI50 (Ba/F3 ERBB2-G776VC)?
The GI50 was 117 nM.

What about the GI50 [3] of the same compound?
Its GI50 is 34 nM.

And the GI50 (Ba/F3 ERBB2-T798M)?
The GI50 was 1500 nM.

And the GI50 (Ba/F3 ERBB2-L869R)?
The GI50 was 52 nM.

And the GI50 [4]?
Its GI50 is 20.4 nM.

Which results are given for Cc1cc(Nc2ncnc3cc(OCCO)c(NC(=O)C#CC4CC4)cc23)ccc1Oc1ccn2ncnc2c1 [Compound 168, 3-cyclopropyl-N-[7-(2-hydroxyethoxy)-4-[(3-methyl-4-[[1,2,4]triazolo[1,5-a]pyridin-7-yloxy]phenyl)amino]quinazolin-6-yl]prop-2-ynamide]?
IC50 [5]: 70.9 nM; IC50 (BT-474 cells): 2.17 nM; IC50 [1]: 17 nM

How did the GI50 (Ba/F3 ERBB2-L755S) turn out when CC#CC(=O)Nc1ccc2ncnc(Nc3ccc(Oc4ccc(C)nc4)c(C)c3)c2c1 [Compound 5, N-[4-([3-methyl-4-[(6-methylpyridin-3-yl)oxy]phenyl]amino)quinazolin-6-yl]but-2-ynamide] was run?
Its GI50 is 6 nM.

And the GI50 (Ba/F3 ERBB2 wt)?
The GI50 was 2.3 nM.

And the GI50 (Ba/F3 ERBB2-V777L)?
The GI50 was 1.1 nM.

And the GI50 [2]?
The GI50 was 8.3 nM.

And the GI50 (Ba/F3 ERBB2-G776VC)?
Its GI50 is 3.8 nM.

And the GI50 [3]?
The GI50 was 1.3 nM.

What about the GI50 (Ba/F3 ERBB2-T798M) of the same compound?
The GI50 was 44 nM.

And the GI50 (Ba/F3 ERBB2-L869R)?
The GI50 was 2.3 nM.

And the GI50 [4]?
The GI50 was 1.1 nM.
